The compounds below were run against T1, KRAS^G12C::SOS1 (Homo sapiens, UniProt Q07889) (assay: KRAS G12C::SOS1 protein-protein interaction (PPI) inhibition assay (HTRF binding kit)). Settings: not given.
T1 sequence (Q07889 1-1333): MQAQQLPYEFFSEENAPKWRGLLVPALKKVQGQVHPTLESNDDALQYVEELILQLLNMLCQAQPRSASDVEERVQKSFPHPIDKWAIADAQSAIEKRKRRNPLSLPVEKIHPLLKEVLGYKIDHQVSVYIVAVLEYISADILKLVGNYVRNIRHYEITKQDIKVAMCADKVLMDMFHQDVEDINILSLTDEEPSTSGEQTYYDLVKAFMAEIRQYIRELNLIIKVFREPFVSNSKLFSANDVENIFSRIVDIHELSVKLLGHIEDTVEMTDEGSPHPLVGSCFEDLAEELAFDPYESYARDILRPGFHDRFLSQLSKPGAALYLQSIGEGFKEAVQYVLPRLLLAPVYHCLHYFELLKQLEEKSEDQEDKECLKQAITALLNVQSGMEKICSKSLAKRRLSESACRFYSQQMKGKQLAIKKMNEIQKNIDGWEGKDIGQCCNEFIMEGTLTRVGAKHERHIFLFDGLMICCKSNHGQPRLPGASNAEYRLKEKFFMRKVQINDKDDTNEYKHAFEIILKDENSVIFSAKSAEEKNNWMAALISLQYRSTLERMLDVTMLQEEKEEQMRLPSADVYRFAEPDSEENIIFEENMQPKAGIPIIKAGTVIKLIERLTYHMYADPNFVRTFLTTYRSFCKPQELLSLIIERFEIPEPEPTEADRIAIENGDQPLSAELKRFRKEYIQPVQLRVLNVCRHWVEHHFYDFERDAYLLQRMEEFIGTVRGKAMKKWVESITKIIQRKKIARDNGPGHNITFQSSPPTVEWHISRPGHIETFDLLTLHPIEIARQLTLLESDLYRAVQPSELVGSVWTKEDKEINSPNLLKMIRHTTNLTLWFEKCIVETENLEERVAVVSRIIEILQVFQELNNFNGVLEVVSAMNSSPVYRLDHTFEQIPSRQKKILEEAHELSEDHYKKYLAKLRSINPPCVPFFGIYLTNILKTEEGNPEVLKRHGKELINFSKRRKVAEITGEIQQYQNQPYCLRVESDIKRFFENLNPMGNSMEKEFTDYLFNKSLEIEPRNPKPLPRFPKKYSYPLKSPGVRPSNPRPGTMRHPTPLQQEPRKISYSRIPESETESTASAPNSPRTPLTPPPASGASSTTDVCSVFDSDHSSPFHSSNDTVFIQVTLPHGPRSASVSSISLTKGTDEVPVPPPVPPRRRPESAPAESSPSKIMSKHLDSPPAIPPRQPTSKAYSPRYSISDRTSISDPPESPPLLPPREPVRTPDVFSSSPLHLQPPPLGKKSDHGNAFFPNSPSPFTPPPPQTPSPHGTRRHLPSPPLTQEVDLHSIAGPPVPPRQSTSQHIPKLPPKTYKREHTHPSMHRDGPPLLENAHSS

Row | SMILES | IC50 [nM]
1 | Cc1nnn(C)c1-c1cccc(-n2nc(C(=O)N[C@H](C)c3cc(N)cc(C(F)(F)F)c3)ccc2=O)c1 [Example 350, N-[(1R)-1-[3-amino-5-(trifluoromethyl)phenyl]ethyl]-1-[3-(3,5-dimethyltriazol-4-yl)phenyl]-6-oxo-pyridazine-3-carboxamide] | < 1000
2 | CNCc1ccc(F)cc1-c1ccc([C@@H](C)NC(=O)c2ccc(=O)n(-c3cccnc3F)n2)s1 [Example 288, N-[(1R)-1-[5-[5-fluoro-2-(methylaminomethyl)phenyl]-2-thienyl]ethyl]-1-(2-fluoro-3-pyridyl)-6-oxo-pyridazine-3-carboxamide] | < 1000
3 | Cc1nnc(-c2cccc(-n3nc(C(=O)N[C@H](C)c4cc(N)cc(C(F)(F)F)c4)ccc3=O)c2)o1 [Example 319, N-[(1R)-1-[3-amino-5-(trifluoromethyl)phenyl]ethyl]-1-[3-(5-methyl-1,3,4-oxadiazol-2-yl)phenyl]-6-oxo-pyridazine-3-carboxamide] | < 1000
4 | CNCc1cc2c(cc1-c1ccc([C@@H](C)NC(=O)c3ccc(=O)n(-c4ccccc4F)n3)s1)CC2 [Example 266, 1-(2-fluorophenyl)-N-[(1R)-1-[5-[4-(methylaminomethyl)-3-bicyclo [4.2.0]octa-1,3,5-trienyl]-2-thienyl]ethyl]-6-oxo-pyridazine-3-carboxamide] | < 1000
5 | C[C@@H](NC(=O)c1ccc(=O)n(-c2ccccc2F)n1)c1cc(N)cc(C(F)(F)F)n1 [Example 395, N-[(1R)-1-[4-amino-6-(trifluoromethyl)-2-pyridyl]ethyl]-1-(2-fluorophenyl)-6-oxo-pyridazine-3-carboxamide] | 1000 to 10000
6 | CNCc1ccc(F)cc1-c1ccc([C@@H](C)NC(=O)c2ccc(=O)n(-c3cnn(C)c3)n2)s1 [Example 296, N-[(1R)-1-[5-[5-fluoro-2-(methylaminomethyl)phenyl]-2-thienyl]ethyl]-1-(1-methylpyrazol-4-yl)-6-oxo-pyridazine-3-carboxamide] | < 1000
7 | C[C@@H](NC(=O)c1ccc(=O)n(-c2ccc3nnn(C)c3c2)n1)c1cc(N)cc(C(F)(F)F)c1 [Example 238, N-[(1R)-1-[3-amino-5-(trifluoromethyl)phenyl]ethyl]-1-(1-methyl-1H-1,2,3-benzotriazol-6-yl)-6-oxo-1,6-dihydropyridazine-3-carboxamide] | < 1000
8 | CNCc1cc(F)c(F)cc1-c1ccc([C@@H](C)NC(=O)c2ccc(=O)n(-c3cccnc3F)n2)s1 [Example 401, N-[(1R)-1-(5-{4,5-difluoro-2-[(methylamino)methyl]phenyl}thiophen-2-yl)ethyl]-1-(2-fluoropyridin-3-yl)-6-oxo-1,6-dihydropyridazine-3-carboxamide] | < 1000
9 | C[C@@H](NC(=O)c1ccc(=O)n(-c2ccccc2F)n1)c1cccc(C(F)(F)F)c1F [Example 259, 1-(2-fluorophenyl)-N-[(1R)-1-[2-fluoro-3-(trifluoromethyl)phenyl]ethyl]-6-oxo-pyridazine-3-carboxamide] | < 1000
10 | C[C@@H](NC(=O)c1ccc(=O)n(-c2cccc(-c3cccc(=O)n3C)c2)n1)c1cc(N)cc(C(F)(F)F)c1 [Example 351, N-[(1R)-1-[3-amino-5-(trifluoromethyl)phenyl]ethyl]-1-[3-(1-methyl-6-oxo-2-pyridyl)phenyl]-6-oxo-pyridazine-3-carboxamide] | < 1000
11 | CNCc1cc(F)ccc1-c1ccc([C@@H](C)NC(=O)c2ccc(=O)n(-c3ccccc3F)n2)s1 [Example 279, N-[(1R)-1-[5-[4-fluoro-2-(methylaminomethyl)phenyl]-2-thienyl]ethyl]-1-(2-fluorophenyl)-6-oxo-pyridazine-3-carboxamide] | < 1000
12 | C[C@@H](NC(=O)c1ccc(=O)n(-c2ccncc2F)n1)c1cccc(C(F)(F)CO)c1F [Example 361, N-[(1R)-1-[3-(1,1-difluoro-2-hydroxy-ethyl)-2-fluoro-phenyl]ethyl]-1-(3-fluoro-4-pyridyl)-6-oxo-pyridazine-3-carboxamide] | < 1000
13 | C[C@@H](NC(=O)c1ccc(=O)n(-c2cccc(-c3cnnn3C)c2)c1)c1cccc(C(F)(F)CO)c1F [Example 335, N-[(1R)-1-[3-(1,1-difluoro-2-hydroxy-ethyl)-2-fluoro-phenyl]ethyl]-1-[3-(3-methyltriazol-4-yl)phenyl]-6-oxo-pyridine-3-carboxamide] | < 1000
14 | C[C@@H](NC(=O)c1ccc(=O)n(-c2cccc(-c3cnnn3C)c2F)n1)c1cc(N)cc(C(F)(F)F)c1 [Example 359, N-[(1R)-1-[3-amino-5-(trifluoromethyl)phenyl]ethyl]-1-[2-fluoro-3-(3-methyltriazol-4-yl)phenyl]-6-oxo-pyridazine-3-carboxamide] | < 1000
15 | C[C@@H](NC(=O)c1ccc(=O)n(-c2ccc(OC(F)F)cc2)n1)c1cc(N)cc(C(F)(F)F)c1 [Example 198, N-[(1R)-1-[3-amino-5-(trifluoromethyl)phenyl]ethyl]-1-[4-(difluoromethoxy)phenyl]-6-oxo-pyridazine-3-carboxamide] | < 1000
16 | C[C@@H](NC(=O)c1ccc(=O)n(-c2c(F)cccc2F)n1)c1cccc(C(F)(F)CO)c1F [Example 357, N-[(1R)-1-[3-(1,1-difluoro-2-hydroxy-ethyl)-2-fluoro-phenyl]ethyl]-1-(2,6-difluorophenyl)-6-oxo-pyridazine-3-carboxamide] | 1000 to 10000
17 | Cc1ncc(-n2nc(C(=O)N[C@H](C)c3cc(N)cc(C(F)(F)F)c3)ccc2=O)s1 [Example 385, N-[(1R)-1-[3-amino-5-(trifluoromethyl)phenyl]ethyl]-1-(2-methylthiazol-5-yl)-6-oxo-pyridazine-3-carboxamide] | < 1000
18 | COc1cnccc1-n1nc(C(=O)N[C@H](C)c2cc(N)cc(C(F)(F)F)c2)ccc1=O [Example 145, N-[(1R)-1-[3-amino-5-(trifluoromethyl)phenyl]ethyl]-1-(3-methoxy-4-pyridyl)-6-oxo-pyridazine-3-carboxamide] | < 1000
19 | C[C@@H](NC(=O)c1ccc(=O)n(-c2cccc(-c3ccccn3)c2)n1)c1cc(N)cc(C(F)(F)F)c1 [Example 325, N-[(1R)-1-[3-amino-5-(trifluoromethyl)phenyl]ethyl]-6-oxo-1-[3-(2-pyridyl)phenyl]pyridazine-3-carboxamide] | < 1000
20 | C[C@@H](NC(=O)c1ccc(=O)n(-c2cccc(-c3ccn[nH]3)c2)n1)c1cc(N)cc(C(F)(F)F)c1 [Example 329, N-[(1R)-1-[3-amino-5-(trifluoromethyl)phenyl]ethyl]-6-oxo-1-[3-(1H-pyrazol-5-yl)phenyl]pyridazine-3-carboxamide] | < 1000
21 | CNCc1ccccc1-c1ccc([C@@H](C)NC(=O)c2ccc(=O)n(-c3ccc(F)cc3F)n2)s1 [Example 398, (R)-1-(2,4-difluorophenyl)-N-(1-(5-(2-((methylamino)methyl)phenyl)thiophenyl-2-yl)ethyl)-6-oxo-1,6-dihydropyridazine-3-carboxamide] | < 1000
22 | Cc1nnnn1-c1cccc(-n2cc(C(=O)N[C@H](C)c3cc(N)cc(C(F)(F)F)c3)ccc2=O)c1 [Example 374, N-[(1R)-1-[3-amino-5-(trifluoromethyl)phenyl]ethyl]-1-[3-(5-methyltetrazol-1-yl)phenyl]-6-oxo-pyridine-3-carboxamide] | < 1000

Same assay, conditions: read-out: KRAS ^G12C::SOS1 PPI assay (IC50 range, Grade); maximum concentration 3 µM, 8 concentrations, three replicates

Row | SMILES | IC50 [nM]
23 | CNCc1ccc(F)cc1-c1ccc([C@@H](C)NC(=O)c2ccc(=O)n(-c3cccnc3O)n2)s1 [Example 408] | < 1000

Reference: EP4667458A1 (Kanaph Therapeutics Inc., priority 2023, dated 2024)
